# Columns and labels:
# Format in all cases: cell-based
# [1] = tested on: Col1a1; experiment: Col1a1 expression by RT-PCR in NIH3T3 cells; settings: 10 μM, 50 μM or 1000 μM peptide, 24 hours, vs untreated group
# Procedure: In this example, the aim was to confirm the effect of the peptide according to an example on improving endogenous skin aging, including improvement of wrinkles and enhancement of elasticity, etc., by evaluating the expression levels of collagen type 1 (Col1a1), fibronectin, elastin, and hyaluronic acid, which are known components of the dermis.
# Specifically, NIH3T3 cells were seeded in a 6-well plate at a density of 3×10^5 cells/well and cultured for 24 hours. Next, the cells were washed once with serum-free DMEM media, and 10 μM, 50 μM or 1000 μM of a peptide consisting of an amino acid sequence of SEQ ID NO: 1 was dispensed into 1 mL of the serum-free media, and cultured in a CO2 incubator at 37° C. for 24 hours. Next, the culture was washed twice with PBS, and RNA was isolated from the culture using easy blue (iNtRON, Cat. No.: 17061, Korea). Next, using an RT kit (Enzynomics, Cat. NO.: RT200, Korea), the isolated RNA was reverse transcribed to synthesize the respective cDNA. Next, using the synthesized 1 ug cDNA, primers for Colla1, fibronectin, or elastin, and a PCR kit (Enzynomics, Cat. No.: P581T, Korea), polymerase chain reaction (PCR) was performed. […]
# [2] = tested on: reactive oxygen species in HaCaT cells; experiment: Reactive oxygen species increased by ultraviolet rays in HaCaT cells (DCF-DA, flow cytometry)
# Procedure: In this example, the aim was to confirm the effect of the peptide according to an embodiment on the antioxidant effect in damaged skin, by evaluating the change in the level of reactive oxygen species in skin cells increased by ultraviolet irradiation.
# Specifically, NIH3T3 cells or HaCaT cells were seeded in a 6-well plate at a density of 5×10^5 cells/well and cultured for 24 hours. Next, the cells were washed once with serum-free DMEM media, and 10 μM, 50 μM or 1000 μM of the peptide consisting of the amino acid sequence of SEQ ID NO: 1 was dispensed into 1 mL of the serum-free media, and cultured in a CO2 incubator at 37° C. for 1 hour. Next, the above culture was transferred to an e-tube, mixed with 1 ml of PBS, and dispensed into a well plate. Next, using a UV irradiator (VILBER LOURMAT, Cat No.: 3102-BSU, France), 6 J/cm^2 ultraviolet rays were irradiated to NIH3T3 cells, and 15 mJ/cm^2 ultraviolet rays were irradiated to HaCaT cells. Next, the PBS in the well plate was removed, 900 μL of the culture medium in which the peptides were dispensed was added, and the plate was cultured in a CO2 incubator at 37° C. for 24 hours. The culture was then treated with DCFG-DA (2′,7′-dichlorofluorescin diacetate), wrapped in foil, and cultured in a CO2 incubator at 37° C. for 30 minutes. Next, the culture was washed twice with PBS and treated with 500 μL of 1× trypsin/EDTA to acquired cells, which were then centrifuged. After washing the centrifuged cells with PBS, FL1 fluorescence values were measured through flow cytometry (FACS, BD, USA). […]
# In this example, the aim was to compare in more detail, the effect of peptides according to an embodiment on the antioxidant effect in damaged skin cells. To this end, the peptide consisting of the amino acid sequence of SEQ ID NO: 2, 3, or 4 having a sequence similar to the peptide according to an embodiment was set as a comparison group, and the level of reactive oxygen species in skin cells increased by ultraviolet irradiation of HaCaT cells was evaluated and compared in the same manner as in Example 4-1. […]
# [3] = tested on: AQP3; experiment: AQP3 expression reduced by ultraviolet rays in HaCaT cells (RT-PCR); settings: 15 mJ/cm^2 UV, 10 μM, 50 μM or 1000 μM peptide, 8 hours
# Procedure: In this example, the aim was to confirm the effect of the peptide according to an embodiment on the recovery of skin barrier factors in damaged skin cells by evaluating changes in the levels of skin barrier factors in skin cells reduced by ultraviolet irradiation.
# Specifically, HaCaT cells were seeded in a 6-well plate at a density of 5×10^5 cells/well and cultured for 24 hours. Next, the cells were washed once with serum-free DMEM media, and 10 μM, 50 μM or 1000 μM of the peptide consisting of the amino acid sequence of SEQ ID NO: 1 was dispensed into 1 mL of the serum-free media, and cultured in a CO2 incubator at 37° C. for 1 hour. Next, the above culture was transferred to an e-tube, mixed with 1 ml of PBS, and dispensed into a well plate. Next, using a UV irradiator (VILBER LOURMAT, Cat No.: 3102-BSU, France), 15 mJ/cm^2 ultraviolet rays were irradiated to the HaCaT cells. Next, the PBS in the well plate was removed, 900 μL of the culture medium in which the peptides were dispensed was added, and the plate was cultured in a CO2 incubator at 37° C. for 8 hours. Next, the culture was washed twice with PBS, and RNA was isolated from the culture using easy blue (iNtRON, Cat. No.: 17061, Korea). Next, using an RT kit (Enzynomics, Cat. NO.: RT200, Korea), the isolated RNA was reverse transcribed to synthesize the respective cDNA. […]
substance,measurement,setting,value
GPRGDP [SEQ ID NO: 1],expression of Col1a1,[1],increased
same,reactive oxygen species reducing effect compared to the comparison group,"[2]; HaCaT cells, vs peptides of SEQ ID NO: 2, 3, or 4 (50 μM, 100 μM)",superior
same,level of reactive oxygen species increased by ultraviolet irradiation,"[2]; keratinocytes (HaCaT), 15 mJ/cm^2 UV, 10 μM, 50 μM or 1000 μM peptide, 24 hours",reduced
same,level of reactive oxygen species increased by ultraviolet irradiation (Example 4-2),"[2]; keratinocytes (HaCaT), comparison experiment, FIG. 11",reduced
same,expression of AQP3 reduced by ultraviolet irradiation,[3],increased or restored

# From patent publication US20260199213A1, “PEPTIDE HAVING ACTIVITY OF IMPROVING STATE OF SKIN, AND USE THEREOF” (CAREGEN CO., LTD., priority 2022, published 2026)
